Each structure is given as a SMILES string.

Results on 15 molecules are retold here after ChEMBL document CHEMBL1131883, “Synthesis and evaluation of benzoxazinones as HIV-1 reverse transcriptase inhibitors. Analogs of Efavirenz (SUSTIVA)” (Bioorg Med Chem Lett, 1999).

Experiment [1] concerns the target Human immunodeficiency virus type 1 reverse transcriptase (Human immunodeficiency virus 1) (UniProt Q72547).
The target of experiment [2] is Human immunodeficiency virus type 1 reverse transcriptase (Human immunodeficiency virus 1, UniProt Q72547). Nature of the experiment: Inhibitory activity against HIV-1 reverse transcriptase.

`CC(C)C#CC1(C(F)(F)F)OC(=O)Nc2ccc([N+](=O)[O-])cc21` (stereo not given): in experiment [1], the IC90 (as a rule, the concentration at which the effect reaches the 90% level) came to 0.00335 µM. Besides, in experiment [2], half-maximal inhibition (IC50) required 0.199 µM.
`Nc1ccc2c(c1)C(C#CC1CC1)(C(F)(F)F)OC(=O)N2` (stereo not given): the IC90 in experiment [1] stood at 0.0206 µM. Further, in experiment [2], the IC50 (in general, the concentration needed to halve the response being measured) was determined as 0.802 µM.
The molecule `CC(=O)Nc1ccc2c(c1)C(C#CC(C)C)(C(F)(F)F)OC(=O)N2` (stereo not given) gave an IC90 in experiment [1] of 0.5 µM. The 50% inhibitory concentration (IC50) in experiment [2] was over 2 µM.
In experiment [1], `CCCC#CC1(C(F)(F)F)OC(=O)Nc2cccc(F)c21` (stereo not given) showed an IC90 of 0.00564 µM. The midpoint of inhibition in experiment [2], the IC50, lay at 0.156 µM.
The like results for `CCC#CC1(C(F)(F)F)OC(=O)Nc2cccc(F)c21` (stereo not given) were, in that order, 0.00418 µM and 0.127 µM.
`CC(C)C#CC1(C(F)(F)F)OC(=O)Nc2ccc(N)cc21` (stereo not given) showed an IC90 in experiment [1] of 0.0275 µM. Further, in experiment [2], the IC50 was determined as 0.896 µM.
`CCC#CC1(C(F)(F)F)OC(=O)Nc2ccc(N)cc21` (stereo not given) yielded an IC90 in experiment [1] of 0.0457 µM. For the same molecule, in experiment [2], the IC50 came out at 1.89 µM.
The like results for `O=C1Nc2cccc(F)c2C(C#CC2CC2)(C(F)(F)F)O1` (stereo not given) were, in that order, 0.00434 µM and 0.078 µM.
The like results for `CC(=O)Nc1ccc2c(c1)C(C#CC1CC1)(C(F)(F)F)OC(=O)N2` (stereo not given) were, in that order, 0.296 µM and over 2 µM.
The like results for `CCCC#CC1(C(F)(F)F)OC(=O)Nc2ccc(N)cc21` (stereo not given) were, in that order, 0.0335 µM and 1.51 µM.
As to `CNc1ccc2c(c1)C(C#CC1CC1)(C(F)(F)F)OC(=O)N2` (stereo not given), it took 0.00902 µM to reach the 90% level in experiment [1] (IC90). Inhibition in experiment [2] was half-maximal at 0.608 µM (IC50).
The like results for `O=C1Nc2ccc([N+](=O)[O-])cc2C(C#CC2CC2)(C(F)(F)F)O1` (stereo not given) were, in that order, 0.00083 µM and 0.209 µM.
The like results for `CCC#CC1(C(F)(F)F)OC(=O)Nc2ccc([N+](=O)[O-])cc21` (stereo not given) were, in that order, 0.00223 µM and 0.276 µM.
The like results for `CCCC#CC1(C(F)(F)F)OC(=O)Nc2ccc([N+](=O)[O-])cc21` (stereo not given) were, in that order, 0.00457 µM and 0.304 µM.
`CNc1ccc2c(c1)C(C#CC(C)C)(C(F)(F)F)OC(=O)N2` (stereo not given) came in with an IC90 in experiment [1] of 0.0103 µM. Besides, the IC50 in experiment [2] was 0.473 µM.
